Measured values: US4683240A, “Pharmaceutical composition containing an imidazolidinetrione derivative or pharmaceutically acceptable salt thereof” (Nippon Zoki Pharmaceutical Co., Ltd., priority 1985, dated 1987)
Like-named read-outs stand apart in the source and are kept apart here.

Key:
Format in all cases: in vivo, rat (Wistar-strain)
Blood Glucose = experiment: Hypoglycemic effect in glucose-loaded fasted rats (blood glucose); conditions: for inhibition in vivo at 100 mg/kg: Rattus norvegicus, vs control, read-out: Blood Glucose Decrease; for inhibition in vivo at 100 mg/kg / Blood Glucose Level: 100 mg/kg oral, 2 h
Method: Groups of 7 Wistar-strain male rats (weighing about 200 g) which were fasted for 18 hours were used for measurement of hypoglycemic effect according to the modified method by Dulin et al. [Dulin, W. L. et al., Proc. Soc. Expl. Med., 107, 245 (1961)]. That is, 0.5 ml/100 g of 20% aqueous solution of glucose was subcutaneously administered to the backs of rats to prevent a decrease in blood glucose level because of the fasting. Immediately thereafter the test drug suspended in 0.5% aqueous C.M.C. solution was orally given, and 2 hours later, the animals underwent laparotomy under pentobarbital anesthesia, then blood was drawn from the vena cava. The obtained blood sample was allowed to stand for 30 minutes to complete the coagulation and was centrifuged to obtain the serum. Blood sugar level was measured according to the mutalotase GOD method [Trinder, Ann. Clin. Biochem., 6, 24 […]]. Asterisks indicate significant differences (*: p<0.05, **: p<0.01, ***: p<0.001) from the control.

Total Serum Cholesterol = experiment: Hypolipidemic effect: total serum cholesterol; conditions: 2 h
Method: (§1) The test drugs suspended in 0.5% aqueous C.M.C. solution were orally administered to groups of 8 Wistar-strain male rats (weighing about 185 g) which were fasted for 18 to 20 hours. 2 hours later, the serum was obtained in the same manner described in (2). Serum triglyceride was measured according to the GPO-p-chlorophenol colorimetric determination [Richard W. Spayd et al., Clinical Chemistry, 24, 1343 (1978)], serum free fatty acid was measured according to the Acyl CoA Synthetase-Acyl CoA Oxidase method [Shimizu S. et al., Biochem. Biophys. Res. Commun., 91, 108 (1979)], free fatty acid was measured according to the enzymatic method [Charles C. Allain et al., Clin. Chem., 20, No. 4, 470 (1974)] and total cholesterol was measured according to the enzymatic method [Takayama M. et al., Clinica Chimica Acta, 79, 93 (1977)]. Asterisks indicate significant differences (*: p<0.05, **: p<00.01, ***: p<0.001) from the control.

Serum Phospholipid = experiment: Hypolipidemic effect: serum phospholipid; conditions: 2 h
Method: as §1

Serum Triglyceride = experiment: Hypolipidemic effect: serum triglyceride; conditions: 2 h
Method: as §1

Serum Free Fatty Acid = experiment: Hypolipidemic effect: serum free fatty acid; conditions: 2 h
Method: as §1

[1] = 100 mg/kg oral, control 44 ± 2 (compounds 4-12), 41 ± 1 (compounds 15-29)
[2] = Rattus norvegicus, 100 mg/kg oral, vs control, read-out: Total Serum Cholesterol Decrease
[3] = 100 mg/kg oral, control 79 ± 2 (compounds 2-12), 72 ± 2 (compounds 15-29)
[4] = Rattus norvegicus, 100 mg/kg oral, vs control, read-out: Serum Phospholipid Decrease
[5] = 100 mg/kg oral, control 65 ± 5 (compounds 2-12), 57 ± 4 (compounds 15-29)
[6] = Rattus norvegicus, 100 mg/kg oral, vs control, read-out: Serum Triglyceride Decrease
[7] = 100 mg/kg oral, control 0.53 ± 0.03 (compounds 2-12), 0.52 ± 0.03 (compounds 15-24)
[8] = Rattus norvegicus, 100 mg/kg oral, vs control, read-out: Serum Free Fatty Acid Decrease

| Structure (SMILES) | inhibition in vivo at 100 mg/kg (Blood Glucose; Table 3) | Blood Glucose Level (Blood Glucose; Table 3, control 133 ± 4) | Total Serum Cholesterol Level (Total Serum Cholesterol; [1]) | inhibition in vivo at 100 mg/kg (Total Serum Cholesterol; [2]) | Serum Phospholipid Level (Serum Phospholipid; [3]) | inhibition in vivo at 100 mg/kg (Serum Phospholipid; [4]) | Serum Triglyceride Level (Serum Triglyceride; [5]) | inhibition in vivo at 100 mg/kg (Serum Triglyceride; [6]) | inhibition in vivo at 100 mg/kg (Blood Glucose; Table 2) | Blood Glucose Level (Blood Glucose; Table 2, control 133 ± 6) | Serum Free Fatty Acid Level (Serum Free Fatty Acid; [7]) | inhibition in vivo at 100 mg/kg (Serum Free Fatty Acid; [8]) | other results |
| --- | --- | --- | --- | --- | --- | --- | --- | --- | --- | --- | --- | --- | --- |
| Cc1ccc(CN2C(=O)NC(=O)C2=O)cc1 [compound 26, 1-(4-methylbenzyl)imidazolidinetrione] | 9.8% | 120 ± 2 mg/dL | 37 ± 1 mg/dL | 9.8% | 58 ± 1 mg/dL | 19.4% | 37 ± 1 mg/dL | 35.1% | – | – | – | – | – |
| CC(C)CN1C(=O)NC(=O)C1=O [compound 5, 1-iso-butylimidazolidinetrione] | – | – | – | – | – | – | – | – | 39.1% | 81 ± 1 mg/dL | – | – | – |
| Cc1cccc(CN2C(=O)NC(=O)C2=O)c1 [compound 25, 1-(3-methylbenzyl)imidazolidinetrione] | 13.5% | 115 ± 3 mg/dL | 36 ± 1 mg/dL | 12.2% | 57 ± 2 mg/dL | 20.8% | 33 ± 2 mg/dL | 42.1% | – | – | – | – | – |
| COc1ccc(CN2C(=O)NC(=O)C2=O)cc1 [compound 29, 1-(4-methoxybenzyl)imidazolidinetrione] | 9.8% | 120 ± 2 mg/dL | 36 ± 1 mg/dL | 12.2% | 58 ± 1 mg/dL | 19.4% | 43 ± 3 mg/dL | 24.6% | – | – | – | – | – |
| O=C1NC(=O)N(Cc2ccc([N+](=O)[O-])cc2)C1=O [compound 23, 1-(4-nitrobenzyl)imidazolidinetrione] | 12% | 117 ± 3 mg/dL | – | – | 65 ± 2 mg/dL | 9.7% | 38 ± 2 mg/dL | 33.3% | – | – | – | – | – |
| O=C1NC(=O)N(Cc2ccc(Br)cc2)C1=O [compound 21, 1-(4-bromobenzyl)imidazolidinetrione] | – | – | 36 ± 1 mg/dL | 12.2% | 57 ± 1 mg/dL | 20.8% | 35 ± 2 mg/dL | 38.6% | – | – | 0.44 ± 0.02 mEq/l | 15.2% | – |
| O=C1NC(=O)N(C2CCCCC2)C1=O [compound 11, 1-cyclohexylimidazolidinetrione] | – | – | 39 ± 1 mg/dL | 11.4% | 60 ± 2 mg/dL | 24.1% | 27 ± 1 mg/dL | 58.5% | 24.1% | 101 ± 2 mg/dL | 0.34 ± 0.01 mEq/l | 35.8% | – |
| O=C1NC(=O)N(Cc2ccc(F)cc2)C1=O [compound 18, 1-(4-fluorobenzyl)imidazolidinetrione] | 20.3% | 106 ± 3 mg/dL | 34 ± 1 mg/dL | 17.1% | 56 ± 1 mg/dL | 22.2% | 30 ± 1 mg/dL | 47.4% | – | – | 0.42 ± 0.02 mEq/l | 19.2% | – |
| O=C1NC(=O)N(Cc2cccc(F)c2)C1=O [compound 17, 1-(3-fluorobenzyl)imidazolidinetrione] | 13.5% | 115 ± 2 mg/dL | 37 ± 1 mg/dL | 9.8% | 58 ± 1 mg/dL | 19.4% | 30 ± 1 mg/dL | 47.4% | – | – | – | – | – |
| CCN1C(=O)C(=O)N(C2CCCC2)C1=O [compound 13, 1-cyclopentyl-3-ethylimidazolidinetrione] | – | – | – | – | – | – | – | – | 14.7% | 116 ± 5 mg/dL | – | – | – |
| CN1C(=O)C(=O)N(C)C1=O [compound 12, 1,3-dimethylimidazolidinetrione] | – | – | 39 ± 1 mg/dL | 11.4% | 61 ± 2 mg/dL | 22.8% | 35 ± 3 mg/dL | 46.2% | 15% | 115 ± 4 mg/dL | 0.37 ± 0.03 mEq/l | 30.2% | – |
| CCCCN1C(=O)NC(=O)C1=O [compound 4, 1-butylimidazolidinetrione] | – | – | 39 ± 1 mg/dL | 11.4% | 58 ± 1 mg/dL | 26.6% | 23 ± 1 mg/dL | 64.6% | 33.8% | 88 ± 7 mg/dL | 0.27 ± 0.02 mEq/l | 49.1% | – |
| CC(C)(C)N1C(=O)NC(=O)C1=O [compound 6, 1-tert-butylimidazolidinetrione] | – | – | – | – | – | – | – | – | 18% | 109 ± 4 mg/dL | – | – | – |
| CCCCNC(=O)NS(=O)(=O)c1ccc(C)cc1 [Tolubutamide, reference compound] | – | – | – | – | – | – | – | – | 63.9% | 48 ± 1 mg/dL | – | – | Blood sugar effect (in words) (Blood Glucose; oral, rats): excessive hypoglycemia; Total Serum Cholesterol Level (Total Serum Cholesterol; 50 mg/kg oral, control 44 ± 2): 46 ± 1 mg/dL; inhibition in vivo at 50 mg/kg (Total Serum Cholesterol; Rattus norvegicus, 50 mg/kg oral, vs control, read-out: Total Serum Cholesterol Decrease): -4.5%; Serum Phospholipid Level (Serum Phospholipid; 50 mg/kg oral, control 79 ± 2): 75 ± 2 mg/dL; inhibition in vivo at 50 mg/kg (Serum Phospholipid; Rattus norvegicus, 50 mg/kg oral, vs control, read-out: Serum Phospholipid Decrease): 5.1%; Serum Free Fatty Acid Level (Serum Free Fatty Acid; 50 mg/kg oral, control 0.53 ± 0.03): 0.44 ± 0.02 mEq/l; inhibition in vivo at 50 mg/kg (Serum Free Fatty Acid; Rattus norvegicus, 50 mg/kg oral, vs control, read-out: Serum Free Fatty Acid Decrease): 15.7%; Serum Triglyceride Level (Serum Triglyceride; 50 mg/kg oral, control 65 ± 5): 53 ± 4 mg/dL; inhibition in vivo at 50 mg/kg (Serum Triglyceride; Rattus norvegicus, 50 mg/kg oral, vs control, read-out: Serum Triglyceride Decrease): 18.5% |
| CCCCCCCCCCN1C(=O)NC(=O)C1=O [compound 9, 1-decylimidazolidinetrione] | – | – | – | – | – | – | – | – | 18% | 109 ± 4 mg/dL | – | – | – |
| O=C1NC(=O)N(C2CCCC2)C1=O [compound 10, 1-cyclopentylimidazolidinetrione] | – | – | – | – | – | – | – | – | 24.8% | 100 ± 4 mg/dL | – | – | – |
| Cc1ccccc1CN1C(=O)NC(=O)C1=O [compound 24, 1-(2-methylbenzyl)imidazolidinetrione] | 12.8% | 116 ± 3 mg/dL | 36 ± 1 mg/dL | 12.2% | 56 ± 1 mg/dL | 22.2% | 30 ± 1 mg/dL | 47.4% | – | – | 0.45 ± 0.01 mEq/l | 13.5% | – |
| O=C1NC(=O)N(Cc2ccccc2F)C1=O [compound 16, 1-(2-fluorobenzyl)imidazolidinetrione] | 11.3% | 118 ± 4 mg/dL | 33 ± 2 mg/dL | 19.5% | 54 ± 1 mg/dL | 25% | 30 ± 1 mg/dL | 47.4% | – | – | – | – | – |
| CCCCCCN1C(=O)NC(=O)C1=O [compound 7, 1-hexylimidazolidinetrione] | – | – | – | – | 66 ± 2 mg/dL | 16.5% | 38 ± 3 mg/dL | 41.5% | 23.3% | 102 ± 6 mg/dL | – | – | – |
